# Biological target: α-glucosidase (Saccharomyces cerevisiae, UniProt P53341)
# Assay: In vitro α-glucosidase inhibition assay (p-NPG hydrolysis, 405 nm)
# Format: biochemical
# Parameters: inhibition: dose or concentration left out as unconfirmed
# Settings: read-out: The Degree of Inhibition of α-Glucosidase Activity, tested compounds at a concentration of 15 mM (Table 1 title); mean ± standard error of the mean, triplicate
# Method: Antidiabetic activity was assessed by the degree of inhibition of α-glucosidase activity by the test substances.
# The study of the degree of α-glucosidase activity inhibition by the test compounds was performed using a standard method with minor modifications.
# Study of the degree of inhibition of α-glucosidase activity by test compounds [25].
# The principle of the method is as follows: the α-glucosidase enzyme hydrolyzes 4-Nitrophenyl α-D-glucopyranoside to form a colorimetric product (405 nm), the concentration of which is proportional to the α-glucosidase activity. […] The resulting mixture was incubated for 15 min at +37 °C, then 200 μL of a solution of 4-Nitrophenyl α-D-glucopyranoside (p-Nitrophenyl α-D-glucopyranoside, P-NPG) (5 mM) was added, and then the mixture was incubated at +37 °C for 20 min. Then, the reaction was stopped by adding 500 μL of sodium carbonate (0.1 M). A solution of α-glucosidase (1 U/mL) was used as a blank. We used 200 μL of DMSO in triplicate as a negative control. […] At the same time, a negative control was set without addition of test compounds. All samples were studied in triplicate. Inhibitory activity was expressed as a percentage (%) according to the degree of inhibition of α-glucosidase in comparison with the negative control. It was calculated by the following formula:
# Inhibitory activity (%) = (1 − As/Ac)∗100%, where As is the optical density of the test compound, and Ac is the optical density of control.
# The IC50 was determined from the graph of enzyme activity changes depending on the sample concentration.
# Statistical processing of the results was carried out using the “Excel 365 v2401” program. […] The α-amylase and α-glucosidase enzymes determine the extent to which glucose enters the bloodstream from the gastrointestinal tract. Inhibition of these enzymes can be useful for lowering postprandial glucose levels.
# Chain of α-glucosidase (P53341 whole entry): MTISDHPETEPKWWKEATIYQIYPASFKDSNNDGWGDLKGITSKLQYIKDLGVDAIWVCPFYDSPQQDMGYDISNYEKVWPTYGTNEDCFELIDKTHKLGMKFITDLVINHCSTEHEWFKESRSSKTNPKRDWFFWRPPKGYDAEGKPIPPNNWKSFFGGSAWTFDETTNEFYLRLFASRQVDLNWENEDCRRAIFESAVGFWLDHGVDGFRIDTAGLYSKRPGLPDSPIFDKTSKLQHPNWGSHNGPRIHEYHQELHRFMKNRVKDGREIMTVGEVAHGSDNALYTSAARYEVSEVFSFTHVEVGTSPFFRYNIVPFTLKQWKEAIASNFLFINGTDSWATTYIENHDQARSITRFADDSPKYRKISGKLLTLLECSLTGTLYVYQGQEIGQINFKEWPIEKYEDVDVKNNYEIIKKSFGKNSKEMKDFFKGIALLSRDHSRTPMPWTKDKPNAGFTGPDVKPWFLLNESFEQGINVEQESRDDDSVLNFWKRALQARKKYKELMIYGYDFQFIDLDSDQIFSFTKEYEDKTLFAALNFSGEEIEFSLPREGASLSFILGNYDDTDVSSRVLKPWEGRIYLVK
row,SMILES,inhibition at 15000 µM [%]
1,Cc1cc(-c2ccccc2)c(NC(=O)c2nnc(-c3ccccc3C(=O)O)s2)c(=O)[nH]1 [9′b],95

# Same assay, conditions: read-out: The Degree of Inhibition of α-Glucosidase Activity; mean ± standard error of the mean, triplicate
row,SMILES,inhibition [%]
1,Cc1cc(-c2ccccc2)c(NC(=O)c2nnc(CCC(=O)O)s2)c(=O)[nH]1 [5′b],72.4 ± 2.3
2,Cc1cc(-c2cccs2)c(NC(=O)c2nnc(CCCC(=O)O)s2)c(=O)[nH]1 [7′c],93.9 ± 0.4
3,Cc1cc(C)c(NC(=O)c2nnc(CCCC(=O)O)s2)c(=O)[nH]1 [7′a],34.8 ± 4.2
4,Cc1cc(C)c(NC(=O)c2nnc(/C=C/C(=O)O)s2)c(=O)[nH]1 [8′a],14 ± 3
5,Cc1cc(-c2cccs2)c(NC(=O)c2nnc(CCC(=O)O)s2)c(=O)[nH]1 [5′c],38.3 ± 2.4
6,Cc1cc(-c2cccs2)c(NC(=O)c2nnc(-c3ccccc3C(=O)O)s2)c(=O)[nH]1 [9′c],21 ± 2.2
7,Cc1cc(C)c(NC(=O)c2nnc(CCC(=O)O)s2)c(=O)[nH]1 [5′a],36.3 ± 4.8
8,Cc1cc(-c2cccs2)c(NC(=O)c2nnc(/C=C/C(=O)O)s2)c(=O)[nH]1 [8′c],8 ± 3
9,Cc1cc(-c2ccccc2)c(NC(=O)c2nnc(/C=C/C(=O)O)s2)c(=O)[nH]1 [8′b],68.2 ± 4.7
10,Cc1cc(-c2ccccc2)c(NC(=O)c2nnc(CCCC(=O)O)s2)c(=O)[nH]1 [7′b],95 ± 0.2
11,Cc1cc(C)c(NC(=O)c2nnc(-c3ccccc3C(=O)O)s2)c(=O)[nH]1 [9′a],33.6 ± 6.1

# Same assay, conditions: tested compounds at a concentration of 15 mM (Table 1 title); mean ± standard error of the mean, triplicate
row,SMILES,The Degree of Inhibition of α-Glucosidase Activity [%]
1,"C[C@H]1O[C@H](O[C@H]2[C@H](O)[C@@H](O)[C@@H](O[C@H]3[C@H](O)[C@@H](O)C(O)O[C@@H]3CO)O[C@@H]2CO)[C@H](O)[C@@H](O)[C@@H]1N[C@H]1C=C(CO)[C@@H](O)[C@H](O)[C@H]1O (stereo partly shown) [Acarbose, reference compound]",49.5 ± 1.8

# Test system: not given
# Assay: not given
# Settings: not given
row,SMILES,melting point [°C]
1,"Cc1cc(-c2ccccc2)c(NC(=O)c2nnc(CCCC(=O)O)s2)c(=O)[nH]1 [7b, 4-(5-((6-Methyl-2-oxo-4-phenyl-1,2-dihydropyridin-3-yl)carbamoyl)-1,3,4-thiadiazol-2-yl)butanoic acid]",243 to 246
2,"Cc1cc(-c2cccs2)c(NC(=O)c2nnc(/C=C/C(=O)O)s2)c(=O)[nH]1 [8c, (E)-3-(5-((6-Methyl-2-oxo-4-(thiophen-2-yl)-1,2-dihydropyridin-3-yl)carbamoyl)-1,3,4-thiadiazol-2-yl)acrylic acid]",247 to 250
3,"Cc1cc(C)c(NC(=O)c2nnc(/C=C/C(=O)O)s2)c(=O)[nH]1 [8a, (E)-3-(5-((4,6-Dimethyl-2-oxo-1,2-dihydropyridin-3-yl)carbamoyl)-1,3,4-thiadiazol-2-yl)acrylic acid]",261 to 263
4,"Cc1cc(-c2ccccc2)c(NC(=O)c2nnc(/C=C/C(=O)O)s2)c(=O)[nH]1 [8b, (E)-3-(5-((6-Methyl-2-oxo-4-phenyl-1,2-dihydropyridin-3-yl)carbamoyl)-1,3,4-thiadiazol-2-yl)acrylic acid]",199 to 202
5,"Cc1cc(-c2ccccc2)c(NC(=O)c2nnc(-c3ccccc3C(=O)O)s2)c(=O)[nH]1 [9b, 2-(5-((6-Methyl-2-oxo-4-phenyl-1,2-dihydropyridin-3-yl)carbamoyl)-1,3,4-thiadiazol-2-yl)benzoic acid]",176 to 180
6,"Cc1cc(C)c(NC(=O)c2nnc(CCCC(=O)O)s2)c(=O)[nH]1 [7a, 4-(5-((4,6-Dimethyl-2-oxo-1,2-dihydropyridin-3-yl)carbamoyl)-1,3,4-thiadiazol-2-yl)butanoic acid]",248 to 250
7,"Cc1cc(C)c(NC(=O)c2nnc(-c3ccccc3C(=O)O)s2)c(=O)[nH]1 [9a, 2-(5-((4,6-Dimethyl-2-oxo-1,2-dihydropyridin-3-yl)carbamoyl)-1,3,4-thiadiazol-2-yl)benzoic acid]",315 to 318
8,"Cc1cc(-c2cccs2)c(NC(=O)c2nnc(-c3ccccc3C(=O)O)s2)c(=O)[nH]1 [9c, 2-(5-((6-Methyl-2-oxo-4-(thiophen-2-yl)-1,2-dihydropyridin-3-yl)carbamoyl)-1,3,4-thiadiazol-2-yl)benzoic acid]",275 to 277
9,"Cc1cc(-c2cccs2)c(NC(=O)c2nnc(CCCC(=O)O)s2)c(=O)[nH]1 [7c, 4-(5-((6-Methyl-2-oxo-4-(thiophen-2-yl)-1,2-dihydropyridin-3-yl)carbamoyl)-1,3,4-thiadiazol-2-yl)butanoic acid]",197 to 200

# From publication PMC10974052, “Synthesis, Computational Study, and In Vitro α-Glucosidase Inhibitory Action of 1,3,4-Thiadiazole Derivatives of 3-Aminopyridin-2(1H)-ones” (Pharmaceuticals, 2024)
